Laboratory results published in publication PMC2233662 (The Journal of General Physiology, 2001).

Biological target: r-InsP3R-3 (recombinant rat type 3 InsP3R) (Rattus norvegicus, UniProt Q63269)
Experiment: single-channel patch clamp of outer nuclear membrane of isolated oocyte nuclei
Format: cell-based

r-InsP3R-3 (recombinant rat type 3 InsP3R), sequence (Q63269 whole entry): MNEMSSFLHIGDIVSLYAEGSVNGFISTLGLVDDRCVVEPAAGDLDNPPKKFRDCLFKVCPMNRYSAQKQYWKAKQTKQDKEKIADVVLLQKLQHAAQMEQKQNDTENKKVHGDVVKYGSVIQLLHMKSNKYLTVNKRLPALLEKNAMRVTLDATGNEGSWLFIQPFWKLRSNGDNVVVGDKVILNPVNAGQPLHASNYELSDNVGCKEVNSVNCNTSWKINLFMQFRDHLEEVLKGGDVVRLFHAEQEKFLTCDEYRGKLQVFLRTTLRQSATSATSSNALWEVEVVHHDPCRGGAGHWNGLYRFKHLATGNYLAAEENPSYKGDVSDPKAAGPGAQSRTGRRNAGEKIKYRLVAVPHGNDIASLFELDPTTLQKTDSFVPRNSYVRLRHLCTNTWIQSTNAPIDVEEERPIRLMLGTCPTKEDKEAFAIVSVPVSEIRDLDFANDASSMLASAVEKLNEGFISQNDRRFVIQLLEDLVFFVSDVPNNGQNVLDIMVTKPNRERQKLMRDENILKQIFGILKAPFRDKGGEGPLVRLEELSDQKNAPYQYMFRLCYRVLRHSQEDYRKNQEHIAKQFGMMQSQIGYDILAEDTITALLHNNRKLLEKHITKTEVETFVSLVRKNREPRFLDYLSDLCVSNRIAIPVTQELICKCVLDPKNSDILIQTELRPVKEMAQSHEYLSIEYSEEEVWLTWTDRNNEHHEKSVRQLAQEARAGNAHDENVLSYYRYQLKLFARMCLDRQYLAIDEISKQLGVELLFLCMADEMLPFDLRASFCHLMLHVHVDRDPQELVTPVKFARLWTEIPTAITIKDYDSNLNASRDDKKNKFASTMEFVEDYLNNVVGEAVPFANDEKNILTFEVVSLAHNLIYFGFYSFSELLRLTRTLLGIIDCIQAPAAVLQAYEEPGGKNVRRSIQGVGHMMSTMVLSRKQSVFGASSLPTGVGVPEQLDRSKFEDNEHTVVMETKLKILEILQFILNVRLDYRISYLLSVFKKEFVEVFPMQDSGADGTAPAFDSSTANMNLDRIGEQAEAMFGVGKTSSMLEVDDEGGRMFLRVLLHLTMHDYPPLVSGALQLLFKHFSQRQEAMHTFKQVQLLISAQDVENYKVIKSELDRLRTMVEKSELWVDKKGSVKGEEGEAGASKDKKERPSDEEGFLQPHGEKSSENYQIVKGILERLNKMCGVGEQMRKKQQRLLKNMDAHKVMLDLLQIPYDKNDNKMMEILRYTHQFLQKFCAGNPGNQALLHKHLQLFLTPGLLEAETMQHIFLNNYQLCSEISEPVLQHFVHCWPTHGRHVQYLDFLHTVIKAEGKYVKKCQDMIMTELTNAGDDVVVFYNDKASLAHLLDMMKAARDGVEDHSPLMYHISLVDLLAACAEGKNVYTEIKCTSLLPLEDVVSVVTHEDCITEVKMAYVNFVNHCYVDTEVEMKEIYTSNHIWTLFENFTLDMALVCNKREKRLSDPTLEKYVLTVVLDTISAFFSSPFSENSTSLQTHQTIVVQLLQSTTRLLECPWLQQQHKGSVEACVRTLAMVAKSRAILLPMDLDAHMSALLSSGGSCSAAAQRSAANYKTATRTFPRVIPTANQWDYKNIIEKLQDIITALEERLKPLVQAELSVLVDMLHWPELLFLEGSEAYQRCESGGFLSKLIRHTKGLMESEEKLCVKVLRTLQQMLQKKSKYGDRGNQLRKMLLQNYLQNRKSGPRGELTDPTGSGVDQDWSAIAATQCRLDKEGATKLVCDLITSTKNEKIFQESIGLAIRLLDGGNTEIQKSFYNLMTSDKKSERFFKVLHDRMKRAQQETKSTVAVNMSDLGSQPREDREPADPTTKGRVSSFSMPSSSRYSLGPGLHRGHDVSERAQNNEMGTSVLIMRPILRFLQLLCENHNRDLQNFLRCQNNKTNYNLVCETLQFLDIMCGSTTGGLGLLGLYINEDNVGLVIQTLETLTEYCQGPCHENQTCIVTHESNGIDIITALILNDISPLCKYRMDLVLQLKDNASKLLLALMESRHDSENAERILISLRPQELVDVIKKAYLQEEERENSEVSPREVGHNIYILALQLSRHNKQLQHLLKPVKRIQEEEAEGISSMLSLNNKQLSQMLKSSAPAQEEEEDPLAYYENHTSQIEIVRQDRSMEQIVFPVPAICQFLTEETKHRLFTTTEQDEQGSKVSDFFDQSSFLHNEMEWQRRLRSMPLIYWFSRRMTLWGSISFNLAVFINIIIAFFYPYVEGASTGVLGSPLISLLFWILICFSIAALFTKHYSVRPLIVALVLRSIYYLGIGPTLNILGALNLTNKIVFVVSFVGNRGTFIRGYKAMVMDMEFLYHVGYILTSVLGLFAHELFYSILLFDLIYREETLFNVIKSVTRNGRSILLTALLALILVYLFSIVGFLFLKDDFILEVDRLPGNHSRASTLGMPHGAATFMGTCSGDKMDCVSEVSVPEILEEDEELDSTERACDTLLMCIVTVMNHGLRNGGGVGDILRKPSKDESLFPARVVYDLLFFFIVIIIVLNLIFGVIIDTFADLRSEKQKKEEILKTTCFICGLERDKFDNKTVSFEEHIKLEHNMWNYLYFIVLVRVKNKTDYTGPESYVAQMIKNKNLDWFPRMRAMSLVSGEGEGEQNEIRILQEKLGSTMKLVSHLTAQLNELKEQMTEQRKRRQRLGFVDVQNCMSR

For `O=P(O)(O)O[C@@H]1[C@H](O)[C@H](O)[C@@H](OP(=O)(O)O)[C@H](OP(=O)(O)O)[C@H]1O` [InsP3], the EC50 was 55 ± 6 nM.
